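Tested at 5 concentrations; 48 h exposure; 96-well plates; endpoints linearly interpolated, else capped at highest concentration. TGI: total growth inhibition.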
How the values were obtained:
Assay in all cases: NCI tumour cell line growth inhibition, 48 h
SF-268 CNS = test system: SF-268 CNS
HCT-15 colon = test system: HCT-15 colon
TK-10 renal = test system: TK-10 renal
NCI-H460 lung = test system: NCI-H460 lung
K-562 leukemia = test system: K-562 leukemia
MDA-MB-231 breast = test system: MDA-MB-231 breast
SK-OV-3 ovarian = test system: SK-OV-3 ovarian
MDA-N = test system: MDA-N
T-47D breast = test system: T-47D breast
IGROV1 ovarian = test system: IGROV1 ovarian
HCT-116 colon = test system: HCT-116 colon
NCI-H23 lung = test system: NCI-H23 lung
LOX IMVI melanoma = test system: LOX IMVI melanoma
SNB-19 CNS = test system: SNB-19 CNS
PC-3 prostate = test system: PC-3 prostate
A498 renal = test system: A498 renal
SN12C renal = test system: SN12C renal
UACC-62 melanoma = test system: UACC-62 melanoma
BT-549 breast = test system: BT-549 breast
HS 578T breast = test system: HS 578T breast
DU-145 prostate = test system: DU-145 prostate
MCF7 breast = test system: MCF7 breast
SK-MEL-5 melanoma = test system: SK-MEL-5 melanoma
MOLT-4 leukemia = test system: MOLT-4 leukemia
KM12 colon = test system: KM12 colon
HOP-62 NSCLC = test system: HOP-62 NSCLC
COLO 205 colon = test system: COLO 205 colon
UACC-257 melanoma = test system: UACC-257 melanoma
RPMI-8226 leukemia = test system: RPMI-8226 leukemia
U251 CNS = test system: U251 CNS
HT29 colon = test system: HT29 colon
OVCAR-5 ovarian = test system: OVCAR-5 ovarian
CCRF-CEM leukemia = test system: CCRF-CEM leukemia
HL-60(TB) leukemia = test system: HL-60(TB) leukemia
OVCAR-8 ovarian = test system: OVCAR-8 ovarian
SK-MEL-28 melanoma = test system: SK-MEL-28 melanoma
SW-620 colon = test system: SW-620 colon
ACHN renal = test system: ACHN renal
CAKI-1 renal = test system: CAKI-1 renal
A549 NSCLC = test system: A549 NSCLC
RXF 393 renal = test system: RXF 393 renal
EKVX NSCLC = test system: EKVX NSCLC
SNB-75 CNS = test system: SNB-75 CNS
SF-539 CNS = test system: SF-539 CNS
SK-MEL-2 melanoma = test system: SK-MEL-2 melanoma
HCC-2998 colon = test system: HCC-2998 colon
MALME-3M melanoma = test system: MALME-3M melanoma
NCI-H522 lung = test system: NCI-H522 lung
OVCAR-4 ovarian = test system: OVCAR-4 ovarian
UO-31 renal = test system: UO-31 renal
SF-295 CNS = test system: SF-295 CNS
MDA-MB-435 = test system: MDA-MB-435
M14 melanoma = test system: M14 melanoma
OVCAR-3 ovarian = test system: OVCAR-3 ovarian
NCI/ADR-RES ovarian = test system: NCI/ADR-RES ovarian
NCI-H226 lung = test system: NCI-H226 lung
786-0 renal = test system: 786-0 renal

## O=C(O)c1cccc2cccc(-c3c4ccc(=O)cc-4oc4cc(O)ccc34)c12
SF-268 CNS
  TGI: > 100 µM
HCT-15 colon
  TGI: > 100 µM
TK-10 renal
  TGI: > 100 µM
NCI-H460 lung
  TGI: > 100000 nM
K-562 leukemia
  TGI: > 100 µM
MDA-MB-231 breast
  TGI: > 100 µM
SK-OV-3 ovarian
  TGI: > 100 µM
MDA-N
  TGI: > 100 µM
T-47D breast
  TGI: > 100 µM
IGROV1 ovarian
  TGI: > 100 µM
HCT-116 colon
  TGI: > 100 µM
NCI-H23 lung
  TGI: > 100 µM
LOX IMVI melanoma
  TGI: > 100 µM
SNB-19 CNS
  TGI: > 100 µM
PC-3 prostate
  TGI: > 100 µM
A498 renal
  TGI: > 100 µM
SN12C renal
  TGI: > 100 µM
UACC-62 melanoma
  TGI: > 100 µM
BT-549 breast
  TGI: > 100 µM
HS 578T breast
  TGI: > 100 µM
DU-145 prostate
  TGI: > 100 µM
MCF7 breast
  TGI: > 100 µM
SK-MEL-5 melanoma
  TGI: > 100 µM
MOLT-4 leukemia
  TGI: > 100 µM
KM12 colon
  TGI: > 100 µM
HOP-62 NSCLC
  TGI: 37.2 µM
COLO 205 colon
  TGI: > 100 µM
UACC-257 melanoma
  TGI: > 100 µM
RPMI-8226 leukemia
  TGI: > 100 µM
U251 CNS
  TGI: > 100 µM
HT29 colon
  TGI: > 100 µM
OVCAR-5 ovarian
  TGI: > 100 µM
CCRF-CEM leukemia
  TGI: > 100 µM
HL-60(TB) leukemia
  TGI: > 100 µM
OVCAR-8 ovarian
  TGI: > 100 µM
SK-MEL-28 melanoma
  TGI: > 100 µM
SW-620 colon
  TGI: > 100 µM
ACHN renal
  TGI: > 100 µM
CAKI-1 renal
  TGI: > 100 µM
A549 NSCLC
  TGI: > 100 µM
RXF 393 renal
  TGI: > 100 µM
EKVX NSCLC
  TGI: > 100 µM
SNB-75 CNS
  TGI: > 100 µM
SF-539 CNS
  TGI: > 100 µM
SK-MEL-2 melanoma
  TGI: > 100 µM
HCC-2998 colon
  TGI: > 100 µM
MALME-3M melanoma
  TGI: > 100 µM
NCI-H522 lung
  TGI: > 100 µM
OVCAR-4 ovarian
  TGI: > 100 µM
UO-31 renal
  TGI: > 100 µM
SF-295 CNS
  TGI: > 100 µM
MDA-MB-435
  TGI: > 100 µM
M14 melanoma
  TGI: > 100 µM
OVCAR-3 ovarian
  TGI: 54.1 µM
NCI/ADR-RES ovarian
  TGI: > 100 µM

## CC(C)(CN1CCCCC1)C(/C=C/c1ccc(Cl)c(Cl)c1)=N\NC(=O)N/N=C(/C=C/c1ccc(Cl)c(Cl)c1)C(C)(C)CN1CCCCC1
SF-268 CNS
  TGI: 3.15 µM
HCT-15 colon
  TGI: 2.56 µM
TK-10 renal
  TGI: 3.08 µM
NCI-H226 lung
  TGI: 4.1 µM
NCI-H460 lung
  TGI: 2770 nM
K-562 leukemia
  TGI: 0.876 µM
MDA-MB-231 breast
  TGI: 3.71 µM
SK-OV-3 ovarian
  TGI: 3.33 µM
MDA-N
  TGI: 2.75 µM
T-47D breast
  TGI: 4.1 µM
IGROV1 ovarian
  TGI: 3.64 µM
HCT-116 colon
  TGI: 2.11 µM
NCI-H23 lung
  TGI: 3.4 µM
LOX IMVI melanoma
  TGI: 2.5 µM
SNB-19 CNS
  TGI: 3.22 µM
PC-3 prostate
  TGI: > 10 µM
A498 renal
  TGI: 3.11 µM
SN12C renal
  TGI: 3.24 µM
UACC-62 melanoma
  TGI: 3.4 µM
BT-549 breast
  TGI: > 10 µM
HS 578T breast
  TGI: 3.39 µM
DU-145 prostate
  TGI: 3.33 µM
MCF7 breast
  TGI: 3.09 µM
SK-MEL-5 melanoma
  TGI: 3.5 µM
MOLT-4 leukemia
  TGI: 8.74 µM
KM12 colon
  TGI: 3.08 µM
786-0 renal
  TGI: 2800 nM
HOP-62 NSCLC
  TGI: 3.32 µM
COLO 205 colon
  TGI: 3.19 µM
UACC-257 melanoma
  TGI: 3.08 µM
RPMI-8226 leukemia
  TGI: 9 µM
U251 CNS
  TGI: 3.13 µM
HT29 colon
  TGI: 1.25 µM
OVCAR-5 ovarian
  TGI: 2.97 µM
CCRF-CEM leukemia
  TGI: 3.45 µM
HL-60(TB) leukemia
  TGI: 3.25 µM
OVCAR-8 ovarian
  TGI: 3.38 µM
SK-MEL-28 melanoma
  TGI: 3.16 µM
SW-620 colon
  TGI: 3.13 µM
ACHN renal
  TGI: 3.37 µM
CAKI-1 renal
  TGI: 3.16 µM
A549 NSCLC
  TGI: 3.3 µM
RXF 393 renal
  TGI: 1.99 µM
EKVX NSCLC
  TGI: 3.06 µM
SNB-75 CNS
  TGI: 3.12 µM
SF-539 CNS
  TGI: 3.25 µM
SK-MEL-2 melanoma
  TGI: > 10 µM
HCC-2998 colon
  TGI: 3.12 µM
MALME-3M melanoma
  TGI: 2.95 µM
NCI-H522 lung
  TGI: 3.56 µM
OVCAR-4 ovarian
  TGI: 3.19 µM
UO-31 renal
  TGI: 5.56 µM
SF-295 CNS
  TGI: 3.07 µM
MDA-MB-435
  TGI: 2.57 µM
M14 melanoma
  TGI: 1.32 µM
OVCAR-3 ovarian
  TGI: 2.91 µM
NCI/ADR-RES ovarian
  TGI: 3.32 µM

## CC(C)(C)C(=O)N(C(=S)OCc1ccccn1)c1ccccc1
SF-268 CNS
  TGI: > 100 µM
HCT-15 colon
  TGI: 85.2 µM
TK-10 renal
  TGI: > 100 µM
NCI-H226 lung
  TGI: > 100 µM
K-562 leukemia
  TGI: > 100 µM
MDA-MB-231 breast
  TGI: > 100 µM
SK-OV-3 ovarian
  TGI: > 100 µM
MDA-N
  TGI: > 100 µM
T-47D breast
  TGI: 63.5 µM
IGROV1 ovarian
  TGI: 54.3 µM
HCT-116 colon
  TGI: 52.3 µM
NCI-H23 lung
  TGI: > 100 µM
LOX IMVI melanoma
  TGI: 51.6 µM
SNB-19 CNS
  TGI: > 100 µM
PC-3 prostate
  TGI: > 100 µM
A498 renal
  TGI: > 100 µM
SN12C renal
  TGI: > 100 µM
UACC-62 melanoma
  TGI: > 100 µM
BT-549 breast
  TGI: > 100 µM
HS 578T breast
  TGI: > 100 µM
DU-145 prostate
  TGI: > 100 µM
MCF7 breast
  TGI: 61.5 µM
SK-MEL-5 melanoma
  TGI: 46.6 µM
MOLT-4 leukemia
  TGI: 62.4 µM
KM12 colon
  TGI: 71.4 µM
786-0 renal
  TGI: > 100000 nM
HOP-62 NSCLC
  TGI: 46.8 µM
COLO 205 colon
  TGI: 49.6 µM
UACC-257 melanoma
  TGI: > 100 µM
RPMI-8226 leukemia
  TGI: 58.7 µM
U251 CNS
  TGI: > 100 µM
HT29 colon
  TGI: > 100 µM
OVCAR-5 ovarian
  TGI: > 100 µM
CCRF-CEM leukemia
  TGI: 68 µM
HL-60(TB) leukemia
  TGI: 64.8 µM
OVCAR-8 ovarian
  TGI: > 100 µM
SK-MEL-28 melanoma
  TGI: > 100 µM
SW-620 colon
  TGI: > 100 µM
ACHN renal
  TGI: > 100 µM
CAKI-1 renal
  TGI: > 100 µM
RXF 393 renal
  TGI: 63.9 µM
EKVX NSCLC
  TGI: 57.7 µM
SF-539 CNS
  TGI: 46.3 µM
SK-MEL-2 melanoma
  TGI: 70.5 µM
MALME-3M melanoma
  TGI: 44.6 µM
UO-31 renal
  TGI: 84.3 µM
MDA-MB-435
  TGI: > 100 µM
M14 melanoma
  TGI: > 100 µM
OVCAR-3 ovarian
  TGI: > 100 µM
NCI/ADR-RES ovarian
  TGI: 91.8 µM

Source: PubChem BioAssay (NCI)
